Tested on: 276233-004-R-J1-PDC KRAS spheroids with HUVEC/MSC, viability
Assay: Anticancer human tumor 276233-004-R-J1-PDC patient-derived colon adenocarcinoma cell line growth inhibition [KRAS2]
Conditions: for IC50: curve of first compound; for viability, T/C: stronger effect = lower value
Summary of the method: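 KRAS-mutant tumor cells were grown as spheroids with HUVEC endothelial cells and human MSCs as stroma. Targeted agents were tested alone and with KRAS pathway inhibitors. Doses started at or near clinical Cmax, or 10 microM, descending half-log.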

[1] = second compound 0.1 µM, first compound 0.0316 µM
[2] = second compound 0.1 µM, first compound 0.1 µM
[3] = second compound 0.1 µM, first compound 0.316 µM
[4] = second compound 0.1 µM, first compound 1 µM
[5] = second compound 0.316 µM, first compound 0.0316 µM
[6] = second compound 0.316 µM, first compound 0.1 µM
[7] = second compound 0.316 µM, first compound 0.316 µM
[8] = second compound 0.316 µM, first compound 1 µM
[9] = second compound 1 µM, first compound 0.0316 µM
[10] = second compound 1 µM, first compound 0.1 µM
[11] = second compound 1 µM, first compound 0.316 µM
[12] = second compound 1 µM, first compound 1 µM
[13] = second compound 3.16 µM, first compound 0.0316 µM
[14] = second compound 3.16 µM, first compound 0.1 µM
[15] = second compound 3.16 µM, first compound 0.316 µM
[16] = second compound 3.16 µM, first compound 1 µM
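Note: cells exposed to agents for seven days before viability read.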
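Throughout, for viability, T/C: 100% = DMSO vehicle control wells and lower values mean fewer viable cells.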

Row | Compound | IC50 (second compound 0.1 µM) [nM] | IC50 (second compound 0.316 µM) [nM] | IC50 (second compound 1 µM) [nM] | IC50 (second compound 3.16 µM) [nM] | viability, T/C [1] [%] | viability, T/C [2] [%] | viability, T/C [3] [%] | viability, T/C [4] [%] | viability, T/C [5] [%] | viability, T/C [6] [%] | viability, T/C [7] [%] | viability, T/C [8] [%] | viability, T/C [9] [%] | viability, T/C [10] [%] | viability, T/C [11] [%] | viability, T/C [12] [%] | viability, T/C [13] [%] | viability, T/C [14] [%] | viability, T/C [15] [%] | viability, T/C [16] [%] | other results
1 | CC1(C)CCC(CN2CCN(c3ccc(C(=O)NS(=O)(=O)c4ccc(NCC5CCOCC5)c([N+](=O)[O-])c4)c(Oc4cnc5[nH]ccc5c4)c3)CC2)=C(c2ccc(Cl)cc2)C1 + C=CC(=O)N1CCN(c2nc(OCC3CCCN3C)nc3c2CCN(c2cccc4cccc(C)c24)C3)CC1CC#N | > 10000 | 8090 | 3050 | < 31.6 | 80.3 | 113 | 85.5 | 86.2 | 102 | 89 | 87.1 | 126 | 83.7 | 111 | 90.5 | 100 | 47.6 | 42.6 | 41.9 | 23.2 | IC50 (second compound 0.0316 µM): > 10000 nM; viability, T/C (second compound 0.0316 µM, first compound 0.0316 µM): 90.7%; viability, T/C (second compound 0.0316 µM, first compound 0.1 µM): 102%; viability, T/C (second compound 0.0316 µM, first compound 0.316 µM): 113%; viability, T/C (second compound 0.0316 µM, first compound 1 µM): 94.4%; viability, T/C (second compound 0.0316 µM, first compound 3.16 µM): 88%; viability, T/C (second compound 0.0316 µM, first compound 10 µM): 56%; viability, T/C (second compound 0.1 µM, first compound 3.16 µM): 96.6%; viability, T/C (second compound 0.1 µM, first compound 10 µM): 61.4%; viability, T/C (second compound 0.316 µM, first compound 3.16 µM): 82.1%; viability, T/C (second compound 0.316 µM, first compound 10 µM): 42.7%; viability, T/C (second compound 1 µM, first compound 3.16 µM): 48.4%; viability, T/C (second compound 1 µM, first compound 10 µM): 22.1%; viability, T/C (second compound 3.16 µM, first compound 3.16 µM): 0.96%; viability, T/C (second compound 3.16 µM, first compound 10 µM): 0.77%
2 | CCN1CCN(Cc2ccc(Nc3ncc(F)c(-c4cc(F)c5nc(C)n(C(C)C)c5c4)n3)nc2)CC1 + COc1cc2nc(C)nc(NC(C)c3cc(N)cc(C(F)(F)F)c3)c2cc1OC1CCOC1 | > 1000 | > 1000 | > 1000 | > 1000 | 88.7 | 84.5 | 91.5 | 115 | 82.4 | 107 | 98.8 | 86.8 | 101 | 80.2 | 96.9 | 102 | 74.1 | 81.1 | 89.4 | 74.3 | IC50 (second compound 10 µM): < 3.16 nM; viability, T/C (second compound 0.1 µM, first compound 0.00316 µM): 89.2%; viability, T/C (second compound 0.1 µM, first compound 0.01 µM): 98.1%; viability, T/C (second compound 0.316 µM, first compound 0.00316 µM): 110%; viability, T/C (second compound 0.316 µM, first compound 0.01 µM): 80.9%; viability, T/C (second compound 1 µM, first compound 0.00316 µM): 105%; viability, T/C (second compound 1 µM, first compound 0.01 µM): 88%; viability, T/C (second compound 3.16 µM, first compound 0.00316 µM): 82.2%; viability, T/C (second compound 3.16 µM, first compound 0.01 µM): 96.5%; viability, T/C (second compound 10 µM, first compound 0.00316 µM): 47.1%; viability, T/C (second compound 10 µM, first compound 0.01 µM): 44.4%; viability, T/C (second compound 10 µM, first compound 0.0316 µM): 26%; viability, T/C (second compound 10 µM, first compound 0.1 µM): 19.7%; viability, T/C (second compound 10 µM, first compound 0.316 µM): 4.33%; viability, T/C (second compound 10 µM, first compound 1 µM): 2.22%
